Measurements from patent US7396837B2, “Antitumoral analogs of lamellarins” (Pharma Mar, S.A.U., priority 2002, dated 2008).
Like-named read-outs stand apart in the source and are kept apart here.

Experiments:
SK-MEL-28 = assay: SRB colorimetric cell growth inhibition assay, SK-MEL-28; type: cell-based; conditions: Homo sapiens, SK-MEL-28, MEL-28; for GI50: GI=growth inhibition, read-out: GI50 MEL-28; for CC50: LC=cell killing (cytotoxic effect), read-out: LC50 MEL-28; for IC (TGI): TGI=total growth inhibition (cytostatic effect), read-out: TGI MEL-28
Procedure, shortened: (§1)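 Continuous drug exposure of human cancer cells; SRB protein stain read-out; triplicate wells, mean ± SD; GI, TGI, LC computed.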

A-549 = assay: SRB colorimetric cell growth inhibition assay, A-549; type: cell-based; conditions: Homo sapiens, A549, A-549; for GI50: GI=growth inhibition, read-out: GI50 A-549; for CC50: read-out: LC50 A-549; for IC (TGI): read-out: TGI A-549
Procedure, shortened: as §1

SK-BR-3 = assay: SRB colorimetric cell growth inhibition assay, SK-BR-3; type: cell-based; conditions: Homo sapiens, SK-BR-3, SK-BR-3; for GI50: GI=growth inhibition, read-out: GI50 SK-BR-3; for CC50: LC=cell killing (cytotoxic effect), read-out: LC50 SK-BR-3; for IC (TGI): TGI=total growth inhibition (cytostatic effect), read-out: TGI SK-BR-3
Procedure, shortened: as §1

LNCaP = assay: SRB colorimetric cell growth inhibition assay, LNCaP; type: cell-based; conditions: Homo sapiens, LNCaP, LN-caP; for GI50: GI=growth inhibition, read-out: GI50 LN-caP; for CC50: LC=cell killing (cytotoxic effect), read-out: LC50 LN-caP; for IC (TGI): TGI=total growth inhibition (cytostatic effect), read-out: TGI LN-caP
Procedure, shortened: as §1

HT-29 = assay: SRB colorimetric cell growth inhibition assay, HT-29; type: cell-based; conditions: Homo sapiens, HT-29, HT-29; for GI50: GI=growth inhibition, read-out: GI50 HT-29; for CC50: read-out: LC50 HT-29; for IC (TGI): read-out: TGI HT-29
Procedure, shortened: as §1

IGROV-ET = assay: SRB colorimetric cell growth inhibition assay, IGROV-ET (ET-743 resistant); type: cell-based; conditions: Homo sapiens, IGROV-ET; for GI50: GI=growth inhibition, read-out: GI50 IGROV-ET; for CC50: LC=cell killing (cytotoxic effect), read-out: LC50 IGROV-ET; for IC (TGI): TGI=total growth inhibition (cytostatic effect), read-out: TGI IGROV-ET
Procedure, shortened: as §1

DU-145 = assay: SRB colorimetric cell growth inhibition assay, DU-145; type: cell-based; conditions: Homo sapiens, DU-145, DU-145; for GI50: GI=growth inhibition, read-out: GI50 DU-145; for CC50: LC=cell killing (cytotoxic effect), read-out: LC50 DU-145; for IC (TGI): TGI=total growth inhibition (cytostatic effect), read-out: TGI DU-145
Procedure, shortened: as §1

LoVo-Dox = assay: SRB colorimetric cell growth inhibition assay, LoVo-Dox (MDR); type: cell-based; conditions: Homo sapiens, LOVO-DOX; for GI50: GI=growth inhibition, read-out: GI50 LOVO-DOX; for CC50: read-out: LC50 LOVO-DOX; for IC (TGI): read-out: TGI LOVO-DOX
Procedure, shortened: as §1

LoVo = assay: SRB colorimetric cell growth inhibition assay, LoVo; type: cell-based; conditions: Homo sapiens, LoVo; for GI50: GI=growth inhibition, read-out: GI50 LOVO; for CC50: read-out: LC50 LOVO; for IC (TGI): read-out: TGI LOVO
Procedure, shortened: as §1

IGROV = assay: SRB colorimetric cell growth inhibition assay, IGROV; type: cell-based; conditions: Homo sapiens, IGROV; for GI50: GI=growth inhibition, read-out: GI50 IGROV; for CC50: LC=cell killing (cytotoxic effect), read-out: LC50 IGROV; for IC (TGI): TGI=total growth inhibition (cytostatic effect), read-out: TGI IGROV
Procedure, shortened: as §1

human topoisomerase I = biological target: T1, human topoisomerase I (Homo sapiens, UniProt P11387); assay: Topoisomerase I DNA relaxation assay (supercoiled plasmid DNA); type: biochemical; conditions: supercoiled plasmid DNA, each compound tested at 1 μM, agarose gel with ethidium bromide
T1 sequence (P11387 1-765): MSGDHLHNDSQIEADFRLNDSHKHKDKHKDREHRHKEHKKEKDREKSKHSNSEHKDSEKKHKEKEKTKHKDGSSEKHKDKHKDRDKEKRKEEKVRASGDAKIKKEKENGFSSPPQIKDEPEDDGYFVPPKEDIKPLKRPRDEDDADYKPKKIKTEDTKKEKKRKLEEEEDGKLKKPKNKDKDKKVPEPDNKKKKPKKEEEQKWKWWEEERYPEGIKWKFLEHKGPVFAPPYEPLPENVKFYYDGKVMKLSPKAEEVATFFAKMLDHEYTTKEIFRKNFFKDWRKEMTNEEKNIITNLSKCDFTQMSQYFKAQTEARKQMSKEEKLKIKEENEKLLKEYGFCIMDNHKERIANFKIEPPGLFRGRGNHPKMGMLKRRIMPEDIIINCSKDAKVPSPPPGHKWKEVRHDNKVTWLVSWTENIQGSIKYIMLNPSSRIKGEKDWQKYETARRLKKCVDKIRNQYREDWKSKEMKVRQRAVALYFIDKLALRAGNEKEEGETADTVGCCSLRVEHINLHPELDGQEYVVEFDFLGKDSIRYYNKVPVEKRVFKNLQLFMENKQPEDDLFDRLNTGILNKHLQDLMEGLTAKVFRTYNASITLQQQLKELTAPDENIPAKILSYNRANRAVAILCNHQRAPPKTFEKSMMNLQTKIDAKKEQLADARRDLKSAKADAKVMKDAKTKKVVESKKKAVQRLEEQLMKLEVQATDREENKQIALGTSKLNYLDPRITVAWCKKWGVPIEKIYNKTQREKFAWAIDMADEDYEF
Procedure, shortened: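 Test compounds (1 μM each) were present during topoisomerase I relaxation of supercoiled plasmid DNA. Relaxation was assessed on ethidium bromide-stained agarose gels.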

PANC-1 = assay: SRB colorimetric cell growth inhibition assay, PANC-1; type: cell-based; conditions: Homo sapiens, PANC-1, PANC-1; for GI50: GI=growth inhibition, read-out: GI50 PANC-1; for CC50: read-out: LC50 PANC-1; for IC (TGI): read-out: TGI PANC-1
Procedure, shortened: as §1

K-562 = assay: SRB colorimetric cell growth inhibition assay, K-562; type: cell-based; conditions: Homo sapiens, K562, K-562; for GI50: GI=growth inhibition, read-out: GI50 K-562; for CC50: read-out: LC50 K-562; for IC (TGI): read-out: TGI K-562
Procedure, shortened: as §1

[1] = LC=cell killing (cytotoxic effect)
[2] = TGI=total growth inhibition (cytostatic effect)
[3] = cell killing (cytotoxic effect)
[4] = total growth inhibition (cytostatic effect)

Compound | GI50 (SK-MEL-28) [nM] | CC50 (SK-MEL-28) [µM] | IC (TGI) (SK-MEL-28) [µM] | GI50 (A-549) [nM] | GI50 (SK-BR-3) [nM] | CC50 (SK-BR-3) [µM] | IC (TGI) (SK-BR-3) [µM] | GI50 (LNCaP) [nM] | CC50 (LNCaP) [µM] | IC (TGI) (LNCaP) [µM] | GI50 (HT-29) [µM] | GI50 (IGROV-ET) [nM] | CC50 (IGROV-ET) [µM] | IC (TGI) (IGROV-ET) [µM] | GI50 (DU-145) [nM] | CC50 (DU-145) [µM] | IC (TGI) (DU-145) [µM] | GI50 (LoVo-Dox) [nM] | GI50 (LoVo) [nM] | GI50 (IGROV) [nM] | also measured
COc1cc(-c2c3c4cc(OC)c(OC(=O)[C@@H](N)CC(C)C)cc4oc(=O)c3n3ccc4cc(OC(=O)[C@@H](N)CC(C)C)c(OC)cc4c23)ccc1OC(=O)[C@@H](N)CC(C)C [Compound 39] | 33.9 | 8.47 | 0.295 | 46.4 | 54.5 | 8.47 | 1.46 | 27.9 | 8.47 | 0.252 | 3.04 | 55 | 8.47 | 0.369 | 18 | 8.47 | 0.142 | 323 | 321 | 34.1 | CC50 (A-549; [1]): 8.47 µM; IC (TGI) (A-549; [2]): 0.855 µM; CC50 (HT-29; [1]): 8.47 µM; IC (TGI) (HT-29; [2]): 8.47 µM; CC50 (LoVo-Dox; [1]): 8.47 µM; IC (TGI) (LoVo-Dox; [2]): 1.81 µM; CC50 (LoVo; [1]): 8.47 µM; IC (TGI) (LoVo; [2]): 2.53 µM; CC50 (IGROV): 8.47 µM; IC (TGI) (IGROV): 0.931 µM; stimulation of DNA cleavage by topoisomerase I / inhibition of topoisomerase I (nicked DNA band) in DNA relaxation assay (human topoisomerase I): marked inhibition of topoisomerase I; GI50 (PANC-1): 164 nM; CC50 (PANC-1; [1]): 8.47 µM; IC (TGI) (PANC-1; [2]): 8.47 µM; GI50 (K-562): 35.9 nM; CC50 (K-562; [1]): 8.47 µM; IC (TGI) (K-562; [2]): 1.08 µM
COc1cc(-c2c3c4cc(OC)c(OC(=O)[C@H](C)N)cc4oc(=O)c3n3ccc4cc(OC(=O)[C@H](C)N)c(OC)cc4c23)ccc1OC(=O)[C@H](C)N [Compound 40] | 41.2 | 9.48 | 0.595 | 31.6 | 816 | 9.48 | 3.25 | 130 | 4.38 | 0.447 | 3.57 | 85.2 | 9.48 | 0.557 | 16.2 | 9.48 | 0.094 | 470 | 223 | 44.9 | CC50 (A-549; [1]): 9.48 µM; IC (TGI) (A-549; [2]): 0.27 µM; CC50 (HT-29; [1]): 9.48 µM; IC (TGI) (HT-29; [2]): 9.48 µM; CC50 (LoVo-Dox; [1]): 9.48 µM; IC (TGI) (LoVo-Dox; [2]): 3.35 µM; CC50 (LoVo; [1]): 6.41 µM; IC (TGI) (LoVo; [2]): 0.884 µM; CC50 (IGROV): 5.04 µM; IC (TGI) (IGROV): 0.391 µM; stimulation of DNA cleavage by topoisomerase I / inhibition of topoisomerase I (nicked DNA band) in DNA relaxation assay (human topoisomerase I): marked inhibition of topoisomerase I; GI50 (PANC-1): 254 nM; CC50 (PANC-1; [1]): 9.48 µM; IC (TGI) (PANC-1; [2]): 3.27 µM; GI50 (K-562): 58.2 nM; CC50 (K-562; [1]): 4.61 µM; IC (TGI) (K-562; [2]): 0.986 µM
COc1cc(-c2c3n(c4c(=O)oc5cc(O)c(OC)cc5c24)CCc2cc(O)c(OC)cc2-3)ccc1O [Compound 109] | 885 | 10.8 | 2.57 | 5940 | 3450 | 19 | 8.1 | 1160 | 19.9 | 1.99 | 4.81 | 9670 | 19.9 | 19.9 | 2990 | 19.9 | 15.4 | 5640 | 917 | 1800 | CC50 (A-549; [3]): 19.9 µM; IC (TGI) (A-549; [4]): 14.1 µM; CC50 (HT-29; [3]): 19.9 µM; IC (TGI) (HT-29; [4]): 19.9 µM; CC50 (LoVo-Dox; [3]): 19.9 µM; IC (TGI) (LoVo-Dox; [4]): 13.5 µM; CC50 (LoVo; [3]): 19.9 µM; IC (TGI) (LoVo; [4]): 4.07 µM; CC50 (IGROV): 19.9 µM; IC (TGI) (IGROV): 6.08 µM; stimulation of DNA cleavage by topoisomerase I / inhibition of topoisomerase I (nicked DNA band) in DNA relaxation assay (human topoisomerase I): inactive; GI50 (PANC-1): 5700 nM; CC50 (PANC-1; [3]): 19.9 µM; IC (TGI) (PANC-1; [4]): 19.9 µM; GI50 (K-562): 425 nM; CC50 (K-562; [3]): 19.9 µM; IC (TGI) (K-562; [4]): 19.9 µM
